Data: patent US20250136606A1, “MODULATORS OF TRPML, THEIR COMPOSITIONS AND METHODS OF USE” (Caraway Therapeutics, Inc., priority 2021, published 2025)
Like-named read-outs stand apart in the source and are kept apart here.

Assays:
Assay type in all cases: cell-based
[1] = target: T1, TRPML3 (Homo sapiens, UniProt Q8TDD5); assay: Fluorescent TRPML3 assay (performed as for TRPML1, substituting the TRPML3 subtype)
T1 construct: expressed in transfected cells
T1 sequence (Q8TDD5 1-553): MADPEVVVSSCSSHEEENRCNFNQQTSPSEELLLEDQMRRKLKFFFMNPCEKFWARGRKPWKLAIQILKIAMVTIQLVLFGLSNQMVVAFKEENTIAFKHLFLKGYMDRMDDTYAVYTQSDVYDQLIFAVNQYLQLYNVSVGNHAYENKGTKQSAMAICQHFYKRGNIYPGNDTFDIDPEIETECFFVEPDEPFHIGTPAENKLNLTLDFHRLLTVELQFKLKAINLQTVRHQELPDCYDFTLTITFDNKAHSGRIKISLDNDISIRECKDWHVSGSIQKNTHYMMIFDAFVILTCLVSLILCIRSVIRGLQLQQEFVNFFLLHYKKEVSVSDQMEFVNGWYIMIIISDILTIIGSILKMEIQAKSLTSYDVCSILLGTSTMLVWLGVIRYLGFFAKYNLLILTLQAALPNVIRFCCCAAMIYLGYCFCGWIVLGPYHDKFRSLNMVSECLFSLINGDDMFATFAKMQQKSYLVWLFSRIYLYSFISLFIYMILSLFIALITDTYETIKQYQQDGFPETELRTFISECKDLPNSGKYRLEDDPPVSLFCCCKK
Procedure: (§1) HEK-293 Trex cells were stably transfected with a construct consisting of the human coding sequence for TRPML1 cloned into the […] plasmid pCDNA5 T/O. Mutations were introduced into the TRPML1 sequence to facilitate expression on the cell surface (Silvia Vergarajauregui, Rosa Puertollano, Traffic. 2006 March; 7(3): 337-353). Briefly, the cells are cultured in 150 mm round tissue culture dishes containing 20 mL of media. The day before the assay the cells are rinsed with DPBS-Ca—Mg and then treated briefly with Trypsin-EDTA. The Trypsin-EDTA is diluted with growth media, and cells are counted. 38×10^6 cells are re-plated into 150 mm round tissue culture dishes in media containing 0.5 ug/mL doxycycline to induce expression of hTRPML1.
(§2) The day of the experiment cells are lifted from the plates as above and collected by centrifugation. The cells are then suspended in dye loading buffer consisting of Ringer's solution supplemented with 0.1% Pluronic Acid and 1 micromolar Fluo4-AM dye. Cells are loaded for ˜60 minutes in the dark with occasional mixing. The cells are collected by centrifugation, the loading media aspirated, and the cells resuspended in 25 mL Ringer's solution and incubated ˜60 minutes in the dark. The cells are again collected by centrifugation, rinsed in Ringer's Solution and resuspended to […] in modified Ringer's solution containing 10 mM calcium.
(§3) Compounds are dissolved to a concentration of 10 millimolar with DMSO. Compound plates are created by dispensing compounds into 384 well black wall clear bottom plates (Greiner 781091). Positive and negative controls are included on each plate. Typically, different amounts of each compound are tested ranging from 100 nanoMoles (20 micromolar final concentration) decreasing in half-log steps to 31 picoMoles (6 nanomolar final concentration). Each concentration is typically tested in triplicate.
(§4) 50 microliters of dye-loaded cells are dispensed into each well of the compound assay plate created above. The fluorescence in each well is then determined with an excitation wavelength of 480 nm and an emission wavelength of 540 nm using either a Molecular Devices SpectraMax multimode plate reader or a Hamamatsu FDSS/uCell plate imager.
(§5) The resulting fluorescence for each well is exported as an ascii file and loaded into our LIMS for analysis. The percent activity of each compound at each concentration is determined by comparison to the positive and negative control wells included in each plate.
(§6) TRPML2 and TRPML3 Assays Assays for TRPML2 and TRPML3 were performed as above for TRPML1, by substituting the appropriate TRPML2 or TRPML3 subtype for the TRPML1.
(§7) EC50 values were calculated using a non-linear regression of Prism. In the table, “A” indicates an EC50 of less than 100 nM, “B” indicates an EC50 range from 100 nM to 500 nM; “C” indicates an EC50 range from 500 nM to 2 μM; and “D” indicates an EC50 greater than 2 μM.

[2] = target: T2, TRPML2 (Homo sapiens, UniProt Q8IZK6); assay: Fluorescent TRPML2 assay (performed as for TRPML1, substituting the TRPML2 subtype)
T2 construct: expressed in transfected cells
T2 sequence (Q8IZK6 1-566): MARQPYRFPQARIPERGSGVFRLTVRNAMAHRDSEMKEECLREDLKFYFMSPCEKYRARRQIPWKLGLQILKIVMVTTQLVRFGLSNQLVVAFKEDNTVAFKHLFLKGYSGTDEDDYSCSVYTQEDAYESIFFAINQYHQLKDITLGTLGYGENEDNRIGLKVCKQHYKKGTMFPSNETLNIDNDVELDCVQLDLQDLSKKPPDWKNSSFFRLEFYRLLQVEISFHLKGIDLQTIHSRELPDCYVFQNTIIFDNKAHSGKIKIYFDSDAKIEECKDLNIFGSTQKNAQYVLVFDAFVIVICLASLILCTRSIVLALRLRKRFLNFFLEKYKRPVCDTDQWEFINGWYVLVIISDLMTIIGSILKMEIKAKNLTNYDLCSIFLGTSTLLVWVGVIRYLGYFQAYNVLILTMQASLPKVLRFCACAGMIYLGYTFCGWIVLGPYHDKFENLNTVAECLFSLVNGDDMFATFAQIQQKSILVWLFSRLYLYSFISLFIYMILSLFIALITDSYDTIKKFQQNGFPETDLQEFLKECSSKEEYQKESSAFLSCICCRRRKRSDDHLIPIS
Procedure: as §1, §2, §3, §4, §5, §6, §7

[3] = target: TRPML1 (Homo sapiens, UniProt Q9GZU1); assay: Fluorescent TRPML1 assay (Fluo4-AM calcium fluorescence in doxycycline-induced HEK-293 Trex cells)
Procedure, shortened: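 HEK-293 Trex cells stably expressing surface-directed mutant human TRPML1, induced with 0.5 µg/mL doxycycline overnight, were loaded with 1 µM Fluo4-AM and added to compound (6 nM–20 µM final, half-log steps, triplicate) in Ringer's with 10 mM calcium. Fluorescence ex 480/em 540; EC50 by non-linear regression versus plate controls.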

Chain of TRPML1 (Q9GZU1 whole entry L15A/L16A/L577A/L578A, form open): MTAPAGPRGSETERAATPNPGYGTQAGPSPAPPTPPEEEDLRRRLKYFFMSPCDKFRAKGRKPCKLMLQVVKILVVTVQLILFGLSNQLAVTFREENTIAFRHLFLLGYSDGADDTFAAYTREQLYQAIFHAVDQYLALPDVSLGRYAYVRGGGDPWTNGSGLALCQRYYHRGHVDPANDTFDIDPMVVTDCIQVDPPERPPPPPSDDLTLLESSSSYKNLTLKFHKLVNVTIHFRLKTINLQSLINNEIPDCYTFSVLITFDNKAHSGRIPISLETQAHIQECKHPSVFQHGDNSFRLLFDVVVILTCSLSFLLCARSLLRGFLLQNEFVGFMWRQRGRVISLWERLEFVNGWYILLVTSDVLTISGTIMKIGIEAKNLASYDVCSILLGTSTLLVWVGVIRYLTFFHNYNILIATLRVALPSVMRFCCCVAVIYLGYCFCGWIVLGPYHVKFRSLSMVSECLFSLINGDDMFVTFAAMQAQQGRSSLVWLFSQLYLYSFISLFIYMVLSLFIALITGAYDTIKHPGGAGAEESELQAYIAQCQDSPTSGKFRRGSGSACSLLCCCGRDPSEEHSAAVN

| Structure (SMILES) | EC50 ([1]; fluorescent calcium assay) | EC50 ([2]; fluorescent calcium assay) | EC50 ([3]; fluorescent calcium assay) | EC50 [1] | EC50 [2] | EC50 [3] |
| --- | --- | --- | --- | --- | --- | --- |
| Cc1nccnc1-c1cn(-c2cc(F)cc(F)c2)c2ncnc(N3CCN(C(=O)OC(C)(C)CF)[C@H](C)C3)c12 [Compound 250, 1-fluoro-2-methylpropan-2-yl (R)-4-(7-(3,5-difluorophenyl)-5-(3-methylpyrazin-2-yl)-7H-pyrrolo[2,3-d]pyrimidin-4-yl)-2-methylpiperazine-1-carboxylate] | 100 to 500 nM | > 2000 nM | 500 to 2000 nM |  |  |  |
| C[C@H]1CN(C(=O)OC(C)(C)C(F)(F)F)CCN1c1ncnc2c1c(-c1ccccc1)cn2-c1cnn(C)c1 [Compound 183, 1,1,1-trifluoro-2-methylpropan-2-yl(S)-3-methyl-4-(7-(1-methyl-1H-pyrazol-4-yl)-5-phenyl-7H-pyrrolo[2,3-d]pyrimidin-4-yl)piperazine-1-carboxylate] | 100 to 500 nM | 500 to 2000 nM | 100 to 500 nM |  |  |  |
| C[C@H]1CN(C(=O)OC(C)(C)C)CCN1c1ncnc2c1c(C1CCC1)cn2-c1cc(C#N)ccn1 [Compound 333] | < 100 nM | < 100 nM | < 100 nM |  |  |  |
| C[C@@H]1CN(c2ncnc3c2c(N2CCC(F)(F)C2)cn3-c2cccc(Cl)c2)CCN1C(=O)OC(C)(C)C [Compound 300, tert-butyl (R)-4-(7-(3-chlorophenyl)-5-(3,3-difluoropyrrolidin-1-yl)-7H-pyrrolo[2,3-d]pyrimidin-4-yl)-2-methylpiperazine-1-carboxylate] | < 100 nM | 500 to 2000 nM | < 100 nM |  |  |  |
| C[C@@H]1CN(c2ncnc3c2c(C2CC2)cn3-c2cc(F)ccc2F)CCN1C(=O)OC(C)(C)C [Compound 206, tert-butyl (R)-4-(5-cyclopropyl-7-(2,5-difluorophenyl)-7H-pyrrolo[2,3-d]pyrimidin-4-yl)-2-methylpiperazine-1-carboxylate] | 100 to 500 nM | 500 to 2000 nM | < 100 nM |  |  |  |
| C[C@H]1CN(C(=O)OC(C)(C)C)CCN1c1ncnc2c1c(-c1ccccc1)cn2-c1cc(C#N)ccn1 [Compound 320, tert-butyl (S)-4-(7-(4-cyanopyridin-2-yl)-5-phenyl-7H-pyrrolo[2,3-d]pyrimidin-4-yl)-3-methylpiperazine-1-carboxylate] |  | 100 to 500 nM | < 100 nM |  |  |  |
| COC(=O)N1CCN(c2ncnc3c2c(-c2ccccc2F)cn3-c2cc(C#N)ccn2)[C@@H](C)C1 [Compound 351, methyl (S)-4-(7-(4-cyanopyridin-2-yl)-5-(2-fluorophenyl)-7H-pyrrolo[2,3-d]pyrimidin-4-yl)-3-methylpiperazine-1-carboxylate] |  | 500 to 2000 nM | < 100 nM |  |  |  |

Further lines, results first:

| EC50 ([1]; fluorescent calcium assay) | EC50 ([2]; fluorescent calcium assay) | EC50 ([3]; fluorescent calcium assay) | EC50 [1] | EC50 [2] | EC50 [3] | Structure (SMILES) |
| --- | --- | --- | --- | --- | --- | --- |
| < 100 nM | < 100 nM | < 100 nM |  |  |  | C[C@@H]1CN(c2ncnc3c2c(N2CCCC2)cn3-c2cc(C#N)ccn2)CCN1C(=O)OC(C)(C)C [Compound 416, tert-butyl (R)-4-(7-(4-cyanopyridin-2-yl)-5-(pyrrolidin-1-yl)-7H-pyrrolo[2,3-d]pyrimidin-4-yl)-2-methylpiperazine-1-carboxylate] |
|  |  |  | < 100 nM | 100 to 500 nM | < 100 nM | C[C@@H]1CN(c2ncnc3c2c(C2CC2)cn3-c2cccc(F)c2)CCN1C(=O)OC(C)(C)C [Compound 656, tert-butyl (R)-4-(5-cyclopropyl-7-(3-fluorophenyl)-7H-pyrrolo[2,3-d]pyrimidin-4-yl)-2-methylpiperazine-1-carboxylate] |
| < 100 nM | 100 to 500 nM | < 100 nM |  |  |  | C[C@H]1CN(C(=O)OC(C)(C)C)CCN1c1ncnc2c1c(C1CC1(F)F)cn2-c1cccc(C#N)c1 (stereo partly drawn) [Compound 376] |
|  |  |  | < 100 nM | < 100 nM | 100 to 500 nM | CC(C)(C)OC(=O)N1CCN(c2ncnc3c2c(C(F)(F)F)cn3-c2cc(C#N)ccn2)C(C)(C)C1 [Compound 528, tert-butyl 4-(7-(4-cyanopyridin-2-yl)-5-(trifluoromethyl)-7H-pyrrolo[2,3-d]pyrimidin-4-yl)-3,3-dimethylpiperazine-1-carboxylate] |
|  |  |  | < 100 nM | 100 to 500 nM | < 100 nM | Cc1cn(-c2ccc(F)cc2)c2ncnc(N3C[C@@H](C)N(C(=O)OC(C)(C)C)C[C@@H]3C)c12 [Compound 676, tert-butyl (2R,5S)-4-(7-(4-fluorophenyl)-5-methyl-7H-pyrrolo[2,3-d]pyrimidin-4-yl)-2,5-dimethylpiperazine-1-carboxylate] |
| < 100 nM | 100 to 500 nM | < 100 nM |  |  |  | CC(C)(C)OC(=O)N1CCN(c2ncnc3c2c(-c2ccccc2F)cn3-c2ncc(C#N)s2)CC1 [Compound 455, tert-butyl 4-(7-(5-cyanothiazol-2-yl)-5-(2-fluorophenyl)-7H-pyrrolo[2,3-d]pyrimidin-4-yl)piperazine-1-carboxylate] |
|  |  |  | > 2000 nM |  | > 2000 nM | Cc1cn(-c2cncnc2)c2ncnc(N3C[C@@H](C)N(C(=O)OC(C)(C)C)C[C@@H]3C)c12 [Compound 674, tert-butyl (2R,5S)-2,5-dimethyl-4-(5-methyl-7-(pyrimidin-5-yl)-7H-pyrrolo[2,3-d]pyrimidin-4-yl)piperazine-1-carboxylate] |
| 100 to 500 nM |  | < 100 nM |  |  |  | CC(C)OC(=O)N1CCN(c2ncnc3c2c(C2CC2)cn3-c2cc(C#N)ccn2)[C@@H](C)C1 [Compound 386, isopropyl (S)-4-(7-(4-cyanopyridin-2-yl)-5-cyclopropyl-7H-pyrrolo[2,3-d]pyrimidin-4-yl)-3-methylpiperazine-1-carboxylate] |
|  |  |  | 500 to 2000 nM |  | 100 to 500 nM | C[C@@H]1CN(c2ncnc3c2c(C(F)F)cn3-c2cc(F)cc(F)c2)[C@@H](C)CN1C(=O)OC1(C)CC1 [Compound 607, 1-methylcyclopropyl (2R,5S)-4-(5-(difluoromethyl)-7-(3,5-difluorophenyl)-7H-pyrrolo[2,3-d]pyrimidin-4-yl)-2,5-dimethylpiperazine-1-carboxylate] |
|  |  |  | < 100 nM |  | < 100 nM | C[C@@H]1CN(c2ncnc3c2c(C(F)F)cn3-c2cc(C#N)ccn2)[C@@H](C)CN1C(=O)OC1(C)CC1 [Compound 613, 1-methylcyclopropyl (2R,5S)-4-(7-(4-cyanopyridin-2-yl)-5-(difluoromethyl)-7H-pyrrolo[2,3-d]pyrimidin-4-yl)-2,5-dimethylpiperazine-1-carboxylate] |
